The source of these data is US9073821B2, “Hydroxamic acid derivative” (priority 2010, dated 2015).

Structures are written as SMILES.

This assay concerns the target Pseudomonas aeruginosa LpxC enzyme (Pseudomonas aeruginosa (strain ATCC 15692 / DSM 22644 / CIP 104116 / JCM 14847 / LMG 12228 / 1C / PRS 101 / PAO1), UniProt P47205). As to the kind of experiment: biochemical. The assay is classed as biochemical. The following applies: inhibitory activity on Pseudomonas aeruginosa LpxC enzyme, class symbols A/B/C; read-out: Enzyme inhibitory activity.
`CNC(=O)C(C(=O)NO)N(C)C(=O)c1ccc(-c2ccc3c(c2)ncn3C)cc1` (stereo not drawn) [Compound 281, N-hydroxy-N′-methyl-2-{methyl[4-(1-methyl-1H-benzimidazol-5-yl)benzoyl]amino}propanediamide]: the IC50 lay within 10 to 100 nM.

`CNC(=O)C(C(=O)NO)N(C)C(=O)c1ccc(-c2ccc3ncn(C)c3c2)cc1` (stereo not drawn) [Compound 282, N-hydroxy-N′-methyl-2-{methyl[4-(1-methyl-1H-benzimidazol-6-yl)benzoyl]amino}propanediamide]: the IC50 lay in the range of 10 to 100 nM.

In the case of `CNC(=O)C(C(=O)NO)N(C)C(=O)c1ccc(-c2ccc(OCC(F)CN3CCOCC3)cc2)cc1` (stereo not drawn) [Compound 283, 2-[({4′-[2-fluoro-3-(morpholin-4-yl)propoxy]biphenyl-4-yl}carbonyl)(methyl)amino]-N-hydroxy-N′-methylpropanediamide], the IC50 was < 10 nM.

For `CNC(=O)C(C(=O)NO)N(C)C(=O)c1ccc(-c2ccc(N)cc2)cc1` (stereo not drawn) [Compound 284, 2-{[(4′-aminobiphenyl-4-yl)carbonyl](methyl)amino}-N-hydroxy-N′-methylpropanediamide], the IC50 lay in the range of 10 to 100 nM.

Regarding `CCOCc1ccc(-c2ccc(C(=O)N(C)C(C(=O)NC)C(=O)NO)cc2)cc1` (stereo not drawn) [Compound 285, 2-[{[4′-(ethoxymethyl)biphenyl-4-yl]carbonyl}(methyl)amino]-N-hydroxy-N′-methylpropanediamide], the IC50 was < 10 nM.

`CNC(=O)C(C(=O)NO)N(C)C(=O)c1ccc(-c2ccc(SCCCN3CCOCC3)cc2)cc1` (stereo not drawn) [Compound 286, N-hydroxy-N′-methyl-2-{methyl[(4′-{[3-(morpholin-4-yl)propyl]sulfanyl}biphenyl-4-yl)carbonyl]amino}propanediamide]: the IC50 was < 10 nM.

On to `CNC(=O)C(C(=O)NO)N(C)C(=O)c1ccc(-c2ccc(N3CCC(CN4CCOCC4)C3)cc2)cc1` (stereo not drawn) [Compound 287, N-hydroxy-N′-methyl-2-[methyl({4′-[3-(morpholin-4-ylmethyl)pyrrolidin-1-yl]biphenyl-4-yl}carbonyl)amino]propanediamide], for which the IC50 is < 10 nM.

As for `CNC(=O)C(C(=O)NO)N(C)C(=O)c1ccc(-c2ccc(OCCCN3CCSCC3)cc2)cc1` (stereo not drawn) [Compound 288, N-hydroxy-N′-methyl-2-[methyl({4′-[3-(thiomorpholin-4-yl)propoxy]biphenyl-4-yl}carbonyl)amino]propanediamide], the IC50 is < 10 nM.

As for `CNC(=O)C(C(=O)NO)N(C)C(=O)c1ccc(-c2ccc(OCCCN3CCS(=O)(=O)CC3)cc2)cc1` (stereo not drawn) [Compound 289, 2-[({4′-[3-(1,1-dioxidothiomorpholin-4-yl)propoxy]biphenyl-4-yl}carbonyl)(methyl)amino]-N-hydroxy-N′-methylpropanediamide], the IC50 is < 10 nM.

Consider `CNC(=O)C(C(=O)NO)N(C)C(=O)c1ccc(-c2ccc3c(c2)COC3)cc1` (stereo not drawn) [Compound 290, 2-[{[4-(1,3-dihydro-2-benzofuran-5-yl)phenyl]carbonyl}(methyl)amino]-N-hydroxy-N′-methylpropanediamide], for which the IC50 is < 10 nM.

Regarding `CNC(=O)C(C(=O)NO)N(C)C(=O)c1ccc(-c2ccc(SCCOC)cc2)cc1` (stereo not drawn) [Compound 291, N-hydroxy-2-[({4′-[(2-methoxyethyl)sulfanyl]biphenyl-4-yl}carbonyl)(methyl)amino]-N′-methylpropanediamide], the IC50 was < 10 nM.

On to `CNC(=O)C(C(=O)NO)N(C)C(=O)c1ccc(-c2ccsc2)cc1` (stereo not drawn) [Compound 292, N-hydroxy-N′-methyl-2-(methyl {[4-(thiophen-3-yl)phenyl]carbonyl}amino)propanediamide], for which the IC50 lay within 10 to 100 nM.

In the case of `CNC(=O)C(C(=O)NO)N(C)C(=O)c1ccc(-c2cccc(C)n2)cc1` (stereo not drawn) [Compound 295, N-hydroxy-N′-methyl-2-(methyl {[4-(6-methylpyridin-2-yl)phenyl]carbonyl}amino)propanediamide], the IC50 was > 100 nM.

Turning to `CNC(=O)C(C(=O)NO)N(C)C(=O)c1ccc(-c2cccc(OC)n2)cc1` (stereo not drawn) [Compound 296, N-hydroxy-2-[{[4-(6-methoxypyridin-2-yl)phenyl]carbonyl}(methyl)amino]-N′-methylpropanediamide], the IC50 is > 100 nM.

With `CNC(=O)C(C(=O)NO)N(C)C(=O)c1ccc(-c2ccc(C(F)(F)F)cn2)cc1` (stereo not drawn) [Compound 297, N-hydroxy-N′-methyl-2-[methyl({4-[5-(trifluoromethyl)pyridin-2-yl]phenyl}carbonyl)amino]propanediamide], the IC50 is > 100 nM.

Take `CNC(=O)C(C(=O)NO)N(C)C(=O)c1cnc(-c2ccccc2)cn1` (stereo not drawn) [Compound 299, N-hydroxy-N′-methyl-2-{methyl[(5-phenylpyrazin-2-yl)carbonyl]amino}propanediamide]: the IC50 is > 100 nM.

With `CNC(=O)C(C(=O)NO)N(C)C(=O)c1ccc(C#Cc2ccc(CNCCF)cc2)cc1` (stereo not drawn) [Compound 300, 2-[({4-[(4-{[(2-fluoroethyl)amino]methyl}phenyl)ethynyl]phenyl}carbonyl)(methyl)amino]-N-hydroxy-N′-methylpropanediamide], the IC50 was < 10 nM.

With `CNC(=O)C(C(=O)NO)N(C)C(=O)c1ccc(C#Cc2ccc(CN3CCN(C)CC3)cc2)cc1` (stereo not drawn) [Compound 304, N-hydroxy-N′-methyl-2-(methyl {[4-({4-[(4-methylpiperazin-1-yl)methyl]phenyl}ethynyl)phenyl]carbonyl}amino)propanediamide], the IC50 is < 10 nM.

As for `CNC(=O)C(C(=O)NO)N(C)C(=O)c1ccc(-n2cccc2)cc1` (stereo not drawn) [Compound 307, N-hydroxy-N′-methyl-2-(methyl {[4-(1H-pyrrol-1-yl)phenyl]carbonyl}amino)propanediamide], the IC50 is > 100 nM.

`CNC(=O)C(C(=O)NO)N(C)C(=O)c1ccc(-c2cccs2)cc1` (stereo not drawn) [Compound 308, N-hydroxy-N′-methyl-2-(methyl {[4-(thiophen-2-yl)phenyl]carbonyl}amino)propanediamide]: the IC50 is 10 to 100 nM.

Turning to `CNC(=O)C(C(=O)NO)N(C)C(=O)c1ccc(-c2cnccn2)cc1` (stereo not drawn) [Compound 309, N-hydroxy-N′-methyl-2-(methyl {[4-(pyrazin-2-yl)phenyl]carbonyl}amino)propanediamide], the IC50 is > 100 nM.

With `CNC(=O)C(C(=O)NO)N(C)C(=O)c1ccc(-c2cnco2)cc1` (stereo not drawn) [Compound 310, N-hydroxy-N′-methyl-2-(methyl {[4-(1,3-oxazol-5-yl)phenyl]carbonyl}amino)propanediamide], the IC50 is > 100 nM.

Regarding `CNC(=O)C(C(=O)NO)N(C)C(=O)c1ccc(-c2ncccn2)cc1` (stereo not drawn) [Compound 311, N-hydroxy-N′-methyl-2-(methyl {[4-(pyrimidin-2-yl)phenyl]carbonyl}amino)propanediamide], the IC50 is > 100 nM.

For the compound `CNC(=O)C(C(=O)NO)N(C)C(=O)c1ccc(-c2cc3ccccc3o2)cc1` (stereo not drawn) [Compound 312, 2-[{[4-(1-benzofuran-2-yl)phenyl]carbonyl}(methyl)amino]-N-hydroxy-N′-methylpropanediamide], the IC50 was < 10 nM.

For `CNC(=O)C(C(=O)NO)N(C)C(=O)c1ccc(C#Cc2ccc(CN(CCO)CCO)cc2)cc1` (stereo not drawn) [Compound 315, 2-[({4-[(4-{[bis(2-hydroxyethyl)amino]methyl}phenyl)ethynyl]phenyl}carbonyl)(methyl)amino]-N-hydroxy-N′-methylpropanediamide], the IC50 is < 10 nM.

Consider `CNC(=O)C(C(=O)NO)N(C)C(=O)c1ccc(C#Cc2ccc(CNC3CCC3)cc2)cc1` (stereo not drawn) [Compound 316, 2-[{[4-({4-[(cyclobutylamino)methyl]phenyl}ethynyl)phenyl]carbonyl}(methyl)amino]-N-hydroxy-N′-methylpropanediamide], for which the IC50 was 10 to 100 nM.

For `CNC(=O)C(C(=O)NO)N(C)C(=O)c1ccc(C#Cc2ccc(CNC3CCCCC3)cc2)cc1` (stereo not drawn) [Compound 318, 2-[{[4-({4-[(cyclohexylamino)methyl]phenyl}ethynyl)phenyl]carbonyl}(methyl)amino]-N-hydroxy-N′-methylpropanediamide], the IC50 is 10 to 100 nM.

For the compound `CNC(=O)C(C(=O)NO)N(C)C(=O)c1ccc(OCc2ccc(OC)cc2)cc1` (stereo not drawn) [Compound 319, N-hydroxy-2-[({4-[(4-methoxybenzyl)oxy]phenyl}carbonyl)(methyl)amino]-N′-methylpropanediamide], the IC50 lay within 10 to 100 nM.

As for `CNC(=O)C(C(=O)NO)N(C)C(=O)c1ccc(C#Cc2ccc(OCC(O)CO)cc2)cc1` (stereo not drawn) [Compound 320, 2-{[(4-{[4-(2,3-dihydroxypropoxy)phenyl]ethynyl}phenyl)carbonyl](methyl)amino}-N-hydroxy-N′-methylpropanediamide], the IC50 was < 10 nM.

Consider `CNC(=O)C(C(=O)NO)N(C)C(=O)c1ccc(C#Cc2ccc(CN3CC(C)(O)C3)cc2)cc1` (stereo not drawn) [Compound 321, N-hydroxy-2-[{[4-({4-[(3-hydroxy-3-methylazetidin-1-yl)methyl]phenyl}ethynyl)phenyl]carbonyl}(methyl)amino]-N′-methylpropanediamide], for which the IC50 was < 10 nM.

As to `CNC(=O)C(C(=O)NO)N(C)C(=O)c1ccc(C#Cc2ccc(CN3CC4(COC4)C3)cc2)cc1` (stereo not drawn) [Compound 322, N-hydroxy-N′-methyl-2-{methyl[(4-{[4-(2-oxa-6-azaspiro[3.3]hept-6-ylmethyl)phenyl]ethynyl}phenyl)carbonyl]amino}propanediamide], the IC50 was < 10 nM.

Take `CNC(=O)C(C(=O)NO)N(C)C(=O)c1ccc(C#Cc2ccc(CNCCC(C)(C)O)cc2)cc1` (stereo not drawn) [Compound 323, N-hydroxy-2-[({4-[(4-{[(3-hydroxy-3-methylbutyl)amino]methyl}phenyl)ethynyl]phenyl}carbonyl)(methyl)amino]-N′-methylpropanediamide]: the IC50 was in the range of 10 to 100 nM.

Regarding `CNC(=O)C(C)(C(=O)NO)N(C)C(=O)c1ccc(-c2ccccc2)cc1` (stereo not drawn) [Compound 324, 2-[(Biphenyl-4-ylcarbonyl)(methyl)amino]-N-hydroxy-N′,2-dimethylpropanediamide], the IC50 is < 10 nM.
